What is called IC50 is the concentration at which inhibition is half-maximal.

The test system of assay [1] is B16 mouse melanoma cells (B16-F1). Put plainly: Melanin production suppression test: intracellular protein level (BCA method). The class given is cell-based. To be noted: 72 h, three days in 0.5 mM theophylline-containing medium, concentration as evaporation residue concentration, * = estimated value. The method, then: (§1) As cells, B16 mouse melanoma cells (B16-F1) were used. Cells passaged 5-10 times, counting from the time of purchase, were used in the test. As medium, DMEM containing 5 or 10% FBS was used.
A quantity of 500 µL of DMEM medium containing 5% FBS was placed in a 24-well plate, and B16 melanoma cells were seeded 1.4 × 10^4 cells/well (7.5 × 10^4 cells/cm^2), then cultured for 24 hours at 37°C under 5% CO2. Thereafter, the medium was replaced with 1 mL of 0.5 mM theophylline-containing medium containing a test sample, and the cells were cultured for another three days.
As the test sample, a fermentation supernatant by each lactic acid bacterium or unfermented Malva sylvestris extract was added to make a blend ratio (volume ratio) of 0.5%, 1%, 2%, or 5% in the medium, taking the undiluted sample solution as 100%. As a control, RO water was added to the medium in the same blend ratios instead of the fermentation supernatant by each lactic acid bacterium or unfermented Malva sylvestris extract. […]
The cell lysate was diluted ten-fold by ultrapure water (milli-Q water) and assayed by the BCA method (Pierce BCA Protein assay kit) using BSA as the reference protein, and the intracellular protein level relative to the control was determined using the following formula. […]

For assay [2] the test system is unchanged. Nature of the assay: Melanin production suppression test: intracellular melanin production level. To be noted: 72 h, three days in 0.5 mM theophylline-containing medium, concentration expressed as evaporation residue concentration. The class given is cell-based. The protocol:
as §1
A quantity of 500 µL of DMEM medium containing 5% FBS was placed in a 24-well plate, and B16 melanoma cells were seeded 1.4 × 10^4 cells/well ([…]), then cultured for 24 hours at 37°C under 5% CO2. Thereafter, the medium was replaced with 1 mL of 0.5 mM theophylline-containing medium containing a test sample, and the cells were cultured for another three days. […]
After culture was completed, the cells were washed twice with PBS(-) and fixed with 99.5% ethanol. […] After allowing to cool, the entire amount of cell lysate was transferred to a 96-well plate, and the 405 nm absorbance was measured. The intracellular melanin production level per culture well was determined from a calibration curve that used synthetic melanin, and the intracellular melanin production level relative to the control was determined by the following formula. […]
The melanin production-suppressing activity of the obtained fermentation supernatants or unfermented plant extract was measured using B16 melanoma cells in the same way as in Test Example 2. […]

Values after ≈ are worked out from the molar mass of the structure shown.

In the case of `OC[C@H]1O[C@@H](Oc2ccc(O)cc2)[C@H](O)[C@@H](O)[C@@H]1O` [compound 15, Arbutin], the IC50 in assay [1] was 1200 µg/mL (≈ 4410 µM); in assay [2], 340 µg/mL (≈ 1250 µM).

The values are drawn from patent EP4134440B1, “MALVA SYLVESTRIS FERMENTATION PRODUCT AND USE THEREOF” (Kabushiki Kaisha Yakult Honsha, priority 2020, dated 2021).
